# Measurements taken from US20210147343A1 (priority 2018, published 2021).
# Where a name gives a salt, the structure may show the parent alone.
# Target: mu opioid receptor (MOR) (Homo sapiens, UniProt P35372)
# Assay: MOR GTPγS agonist assay
# Assay type: biochemical
# Design: host or cells: CHO-K1
# Conditions: membranes of CHO cells over-expressing MOR; SPA beads; read-out: MOR GTPγS EC50
# Excerpt: Membranes obtained from the stable cell lines over-expressing MOR were subjected to GTPγS assay using SPA beads (Perkin Elmer, Cat #RPNQ0001).
# mu opioid receptor (MOR), sequence (P35372 whole entry): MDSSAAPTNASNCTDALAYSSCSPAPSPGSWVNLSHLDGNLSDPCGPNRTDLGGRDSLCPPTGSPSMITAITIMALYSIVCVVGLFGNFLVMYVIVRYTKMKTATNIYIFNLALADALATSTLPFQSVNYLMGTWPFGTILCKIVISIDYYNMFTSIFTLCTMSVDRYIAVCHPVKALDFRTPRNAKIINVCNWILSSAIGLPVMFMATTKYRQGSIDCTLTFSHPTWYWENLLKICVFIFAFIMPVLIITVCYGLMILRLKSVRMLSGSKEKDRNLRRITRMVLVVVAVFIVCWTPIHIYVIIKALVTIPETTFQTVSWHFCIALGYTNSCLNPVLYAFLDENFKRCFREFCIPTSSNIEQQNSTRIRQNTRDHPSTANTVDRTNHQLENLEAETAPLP
row,Compound,EC50
1,"CN(C)[C@](C)(CNC(=O)c1ccc(Cl)c(Cl)c1)Cc1ccc(O)cc1 [Compound C-3, (S)-3,4-dichloro-N-(2-(dimethylamino)-3-(4-hydroxyphenyl)-2-methylpropyl)benzamide]",> 1 µM
2,"COc1ccc(C(=O)NC[C@H](Cc2c(C)cc(O)cc2C)N(C)C)cc1Cl [Compound C-5, (S)-3-chloro-N-(2-(dimethylamino)-3-(4-hydroxy-2,6-dimethylphenyl)propyl)-4-methoxybenzamide]",< 0.1 µM
3,"CN(C)[C@H](CNC(=O)c1ccc(Cl)c(Cl)c1)Cc1ccc2n[nH]cc2c1 [Compound C-4, (S)-3,4-dichloro-N-(2-(dimethylamino)-3-(1H-indazol-5-yl)propyl)benzamide]",< 0.1 µM
4,"CNC(=O)c1cc(C)c(C[C@@H](CNC(=O)c2ccc(Cl)c(Cl)c2)N(C)C)c(C)c1 [Compound C-42, (S)-4-(3-(3,4-Dichlorobenzamido)-2-(dimethylamino)propyl)-N,3,5-trimethylbenzamide Hydrochloride]",< 0.1 µM
5,CNC(=O)c1cc(C)c(C[C@@H](CNC(=O)c2ccccn2)N(C)C)c(C)c1 [Compound C-46],> 1 µM
6,"CNC(=O)c1cc(C)c(C[C@@H](CNC(=O)c2cnccn2)N(C)C)c(C)c1 [Compound C-47, (S)—N-(3-(2,6-dimethyl-4-(methylcarbamoyl)phenyl)-2-(dimethylamino)propyl)pyrazine-2-carboxamide]",> 1 µM
7,CNC(=O)c1cc(C)c(C[C@@H](CNC(=O)c2ncc(C)cc2C)N(C)C)c(C)c1 [Compound C-49],0.1 to 1 µM
8,"CNC(=O)c1ccc(C[C@@H](CNC(=O)N2CCc3ccccc3C2)N(C)C)cc1F [Compound C-58, (S)—N-(2-(dimethylamino)-3-(3-fluoro-4-(methylcarbamoyl)phenyl)propyl)-3,4-dihydroisoquinoline-2(1H)-carboxamide]",< 0.1 µM
9,"CN(C)[C@H](CNC(=O)c1cccc(Cl)c1)Cc1ccc(O)cc1 [Compound C-23, (S)-3-chloro-N-(2-(dimethylamino)-3-(4-hydroxyphenyl)propyl)benzamide]",0.1 to 1 µM
10,CNC(=O)c1ccc(C[C@@H](CNC(=O)c2ccc(Cl)c(Cl)c2)N(C)CC2CC2)cc1F [Compound C-38],< 0.1 µM
11,CNC(=O)c1cc(C)c(CC(CNC(=O)c2ccccc2C2CC2)N(C)C)c(C)c1 (stereo not drawn) [Compound C-43],< 0.1 µM
12,CN(C)[C@H](CNC(=O)c1ccc(Cl)cc1)Cc1ccc(O)cc1Cl [Compound C-21],> 1 µM
13,"CN1Cc2cc(O)ccc2C[C@H]1CNC(=O)N1CCc2ccccc2C1 [Compound C-53, (S)—N-((7-hydroxy-2-methyl-1,2,3,4-tetrahydroisoquinolin-3-yl)methyl)-3,4-dihydroisoquinoline-2(1H)-carboxamide]",< 0.1 µM
14,"Cc1cc(O)cc(C)c1C[C@@H](CNC(=O)N1CCc2ccccc2C1)N(C)C [Compound C-55, (S)—N-(2-(dimethylamino)-3-(4-hydroxy-2,6-dimethyphenyl)propyl)-3,4-dihydroisoquinoline-2(1H)-carboxamide]",> 1 µM
15,CN(C)[C@H](CNC(=O)c1ccc(C2CC2)cc1)Cc1ccc(O)cc1Cl [Compound C-20],> 1 µM
16,CNC(=O)c1cc(C)c(C[C@@H](CNC(=O)c2ccc(OC)cc2)N(C)C)c(C)c1 [Compound C-17],< 0.1 µM
17,CNC(=O)c1cc(C)c(C[C@@H](CNC(=O)c2ccccc2Cl)N(C)C)c(C)c1 [Compound C-10],0.1 to 1 µM
18,Cc1cc(O)cc(C)c1C[C@@H](CNC(=O)c1cc(F)c(Cl)c(F)c1)N(C)C [Compound C-29],< 0.1 µM
19,CN(CC(F)(F)F)[C@H](CNC(=O)c1ccc(Cl)c(Cl)c1)Cc1ccc2[nH]ncc2c1 [Compound C-63],> 1 µM
20,CNC(=O)c1cc(C)c(C[C@@H](CNC(=O)c2ccc(F)c(Cl)c2)N(C)C)c(C)c1 [Compound C-14],< 0.1 µM
21,Cc1ccc(C(=O)NC[C@H](Cc2ccc3n[nH]cc3c2)N(C)C)c(C)c1 [Compound C-51],0.1 to 1 µM
